Data on five compounds can be found in US7910579B2, “Benzoxazole derivatives” (Tohoku University, priority 2006, dated 2011).

Data set [1] has as its target T1, amyloid β protein in the brain section of an Alzheimer disease patient (Homo sapiens, UniProt P05067).
T1 construct: from tissue; host or cells: paraffin-embedded temporal lobe and hippocampus of Alzheimer disease patients
The experiment in a line: Staining test on a brain section of an Alzheimer disease patient: amyloid β protein. The data set is classed as binding. To be noted: 100 μM solution in 50% ethanol, 10 minutes, paraffin brain section. In outline:
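Deparaffinized 6 or 8 μm temporal lobe/hippocampus sections from Alzheimer and normal senile brains, autofluorescence quenched with KMnO4 then K2S2O5/oxalic acid, stained 10 min with 100 μM compound in 50% ethanol and imaged by fluorescence microscopy. Amyloid β immunostaining with 6F/3D antibody and ABC/DAB detection used for comparison.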

The test system of data set [2] is histidine-requiring Salmonella typhimurium TA100 and TA98 strains. The experiment in a line: Mutagenicity Test (reverse mutation test). On Relative Activity in the presence of S9Mix: key: minus: The number of colonies after reverse mutation did not increase at least two times that of the negative control. The data set is classed as cell-based. The note with it: for Relative Activity in the presence of S9Mix / Relative Activity in the absence of S9Mix: reverse mutation test. In outline:
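Preincubation reverse-mutation test in S. typhimurium TA100 and TA98, with and without S9mix, 20 min at 37° C, then 48 h at 37° C on minimal glucose agar. Six doses (common ratio 2) in DMSO, top dose 5000 μg/plate or growth-inhibiting dose. Revertant colonies counted; positive at ≥2-fold over DMSO control with dose dependency or reproducibility.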

The mark [3] stands for this setting: irrespective of the absence or presence of S9mix.

T1 sequence (P05067 672-713 limits assumed): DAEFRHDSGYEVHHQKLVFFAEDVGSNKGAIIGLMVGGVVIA

With `OCC(CF)Oc1ccc2nc(/C=C/c3cnc(N4CCOCC4)s3)oc2c1` (centres unmarked) [THK-702, (E)-2-[2-(2-morpholinothiazol-5-yl)ethenyl]-6-[(1-fluoromethyl-2-hydroxy)ethoxy]-benzoxazole], the “Binding to (staining of) amyloid β protein in the brain section of an Alzheimer disease patient” value (“Binding” for short) in data set [1] is given as “white space arrow indicates amyloid β protein”. In addition, the “Relative activity (mutagenicity)” value in data set [2] (setting [3]) is on record as “minus”. In addition, in data set [2], the “Relative Activity in the presence of S9Mix” value is on record as “minus” and the “Relative Activity in the absence of S9Mix” value is reported as “minus”.

Consider `CNc1ncc(/C=C/c2nc3ccc(OC(CO)CF)cc3o2)s1` (centres unmarked) [THK-761, (E)-6-[(1-fluoromethyl-2-hydroxy)ethoxy]-2-[2-[2-methylaminothiazol-5-yl]ethenyl]-benzoxazole], for which the “Binding” value in data set [1] is listed as “white space arrow indicates amyloid β protein”. In data set [2] (in the presence of S9mix), the “Relative activity (mutagenicity)” value is reported as “weak”. Besides, in data set [2], the “Relative Activity in the presence of S9Mix” value is recorded as “minus” and the “Relative Activity in the absence of S9Mix” value came out at 11995.

Take `CN(C)c1ncc(/C=C/c2nc3ccc(OC(CO)CF)cc3o2)s1` (centres unmarked) [THK-763, (E)-6-[(1-fluoromethyl-2-hydroxy)ethoxy]-2-[2-[2-dimethylamino-thiazol-5-yl]ethenyl]benzoxazole]: the “Binding” value in data set [1] is “white space arrow indicates amyloid β protein”. Moreover, in data set [2] (in the presence of S9mix), the “Relative activity (mutagenicity)” value is “weak”. Also, in data set [2], the “Relative Activity in the presence of S9Mix” value is given as “minus” and the “Relative Activity in the absence of S9Mix” value worked out at 3058.

`OCC(CF)Oc1ccc2nc(/C=C/c3cnc(N4CCCC4)s3)oc2c1` (centres unmarked) [THK-752, (E)-6-[(1-fluoromethyl-2-hydroxy)ethoxy]-2-[2-[2-(pyrrolidin-1-yl)-thiazol-5-yl]ethenyl]benzoxazole]: in data set [1], the “Binding” value is on record as “white space arrow indicates amyloid β protein”. In addition, the “Relative activity (mutagenicity)” value in data set [2] (setting [3]) is “minus”. For the same compound, in data set [2], the “Relative Activity in the presence of S9Mix” value is listed as “minus” and the “Relative Activity in the absence of S9Mix” value is recorded as “minus”.

With `FCCOc1ccc2nc(/C=C/c3cnc(N4CCOCC4)s3)oc2c1` [THK-525, 6-(2-fluoro-ethoxy)-2-[2-(2-morpholin-4-yl-thiazol-5-yl)-vinyl]-benzoxazole], in data set [1], the “Binding” value is “bound to the amyloid β protein”. In data set [2] (setting [3]), the “Relative activity (mutagenicity)” value was “minus”. Moreover, in data set [2], the “Relative Activity in the presence of S9Mix” value is “minus” and the “Relative Activity in the absence of S9Mix” value was “minus”.
